Laboratory results: PubChem BioAssay (NCI)
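Protocol summary: plate cells (96-well), add compound at 5 concentrations, incubate 48 h, interpolate endpoints linearly. GI50 is the concentration that inhibits growth by half. Definition used: TGI = concentration required for complete inhibition of growth.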

What was measured:
Assay in all cases: NCI-60 cell line screen, 48 h
[1] = test system: HT29 colon
[2] = test system: SF-268 CNS
[3] = test system: LOX IMVI melanoma
[4] = test system: NCI-H23 lung
[5] = test system: UACC-257 melanoma
[6] = test system: ACHN renal
[7] = test system: NCI-H460 lung
[8] = test system: U251 CNS
[9] = test system: SK-MEL-2 melanoma
[10] = test system: MCF7 breast
[11] = test system: HCT-15 colon
[12] = test system: CCRF-CEM leukemia
[13] = test system: OVCAR-3 ovarian
[14] = test system: 786-0 renal
[15] = test system: MDA-MB-231 breast
[16] = test system: SK-MEL-28 melanoma
[17] = test system: OVCAR-4 ovarian
[18] = test system: K-562 leukemia
[19] = test system: CAKI-1 renal
[20] = test system: MDA-MB-435
[21] = test system: HS 578T breast
[22] = test system: RXF 393 renal
[23] = test system: A549 NSCLC
[24] = test system: SK-MEL-5 melanoma
[25] = test system: A498 renal
[26] = test system: NCI/ADR-RES ovarian
[27] = test system: SN12C renal
[28] = test system: PC-3 prostate
[29] = test system: UACC-62 melanoma
[30] = test system: IGROV1 ovarian
[31] = test system: TK-10 renal
[32] = test system: SW-620 colon
[33] = test system: UO-31 renal
[34] = test system: M14 melanoma
[35] = test system: NCI-H226 lung
[36] = test system: RPMI-8226 leukemia
[37] = test system: EKVX NSCLC
[38] = test system: SK-OV-3 ovarian
[39] = test system: COLO 205 colon
[40] = test system: HCT-116 colon
[41] = test system: MOLT-4 leukemia
[42] = test system: KM12 colon
[43] = test system: SF-295 CNS
[44] = test system: SNB-75 CNS
[45] = test system: OVCAR-5 ovarian
[46] = test system: NCI-H522 lung
[47] = test system: OVCAR-8 ovarian
[48] = test system: HOP-62 NSCLC
[49] = test system: SNB-19 CNS
[50] = test system: MALME-3M melanoma
[51] = test system: HOP-92 NSCLC
[52] = test system: SF-539 CNS
[53] = test system: T-47D breast
[54] = test system: BT-549 breast
[55] = test system: HCC-2998 colon
[56] = test system: HL-60(TB) leukemia
[57] = test system: DU-145 prostate

Cc1cc([C@@H](C)Nc2ccccc2C(=O)O)c2nc(N3CCOCC3)cc(=O)n2c1
GI50 [1]: > 10 µM
TGI [1]: > 10 µM
GI50 [2]: > 10 µM
TGI [2]: > 10 µM
GI50 [3]: 6.73 µM
TGI [3]: > 10 µM
GI50 [4]: > 10 µM
TGI [4]: > 10 µM
GI50 [5]: > 10 µM
TGI [5]: > 10 µM
GI50 [6]: > 10 µM
TGI [6]: > 10 µM
GI50 [7]: > 10 µM
TGI [7]: > 10 µM
GI50 [8]: > 10 µM
TGI [8]: > 10 µM
GI50 [9]: > 10 µM
TGI [9]: > 10 µM
GI50 [10]: 3.36 µM
TGI [10]: > 10 µM
GI50 [11]: > 10 µM
TGI [11]: > 10 µM
GI50 [12]: > 10 µM
TGI [12]: > 10 µM
GI50 [13]: 6.02 µM
TGI [13]: > 10 µM
GI50 [14]: 1.23 µM
TGI [14]: > 10 µM
GI50 [15]: > 10 µM
TGI [15]: > 10 µM
GI50 [16]: > 10 µM
TGI [16]: > 10 µM
GI50 [17]: > 10 µM
TGI [17]: > 10 µM
GI50 [18]: > 10 µM
TGI [18]: > 10 µM
GI50 [19]: 6.28 µM
TGI [19]: > 10 µM
GI50 [20]: > 10 µM
TGI [20]: > 10 µM
GI50 [21]: 0.122 µM
TGI [21]: 8.14 µM
GI50 [22]: 0.0564 µM
TGI [22]: 1.33 µM
GI50 [23]: > 10 µM
TGI [23]: > 10 µM
GI50 [24]: > 10 µM
TGI [24]: > 10 µM
GI50 [25]: 0.0166 µM
TGI [25]: 0.0945 µM
GI50 [26]: > 10 µM
TGI [26]: > 10 µM
GI50 [27]: > 10 µM
TGI [27]: > 10 µM
GI50 [28]: 3.73 µM
TGI [28]: > 10 µM
GI50 [29]: 0.627 µM
TGI [29]: > 10 µM
GI50 [30]: 1.85 µM
TGI [30]: > 10 µM
GI50 [31]: > 10 µM
TGI [31]: > 10 µM
GI50 [32]: > 10 µM
TGI [32]: > 10 µM
GI50 [33]: 2.43 µM
TGI [33]: > 10 µM
GI50 [34]: > 10 µM
TGI [34]: > 10 µM
GI50 [35]: > 10 µM
TGI [35]: > 10 µM
GI50 [36]: > 10 µM
TGI [36]: > 10 µM
GI50 [37]: > 10 µM
TGI [37]: > 10 µM
GI50 [38]: 1.08 µM
TGI [38]: > 10 µM
GI50 [39]: > 10 µM
TGI [39]: > 10 µM
GI50 [40]: 2.76 µM
TGI [40]: > 10 µM
GI50 [41]: 5.42 µM
TGI [41]: > 10 µM
GI50 [42]: > 10 µM
TGI [42]: > 10 µM
GI50 [43]: 1.85 µM
TGI [43]: > 10 µM
GI50 [44]: 0.43 µM
TGI [44]: > 10 µM
GI50 [45]: > 10 µM
TGI [45]: > 10 µM
GI50 [46]: > 10 µM
TGI [46]: > 10 µM
GI50 [47]: > 10 µM
TGI [47]: > 10 µM
GI50 [48]: > 10 µM
TGI [48]: > 10 µM
GI50 [49]: > 10 µM
TGI [49]: > 10 µM
GI50 [50]: > 10 µM
TGI [50]: > 10 µM
GI50 [51]: 0.175 µM
TGI [51]: 6.08 µM
GI50 [52]: 7.11 µM
TGI [52]: > 10 µM
GI50 [53]: 0.207 µM
TGI [53]: 1.94 µM
GI50 [54]: 1.17 µM
TGI [54]: > 10 µM
GI50 [55]: > 10 µM
TGI [55]: > 10 µM
GI50 [56]: 5.5 µM
TGI [56]: > 10 µM
GI50 [57]: > 10 µM
TGI [57]: > 10 µM
